Tested on: SARS-CoV-2
Assay: microbe, parasite or virus in culture
Conditions: Severe acute respiratory syndrome coronavirus 2, Vero C1008, 48 h

Row | SMILES | IC50 [µM] | IC50 (read-out: pIC50 (converted)) [µM]
1 | Clc1ccc(N2CCN(C/C=C/c3ccccc3)CC2)nn1 [LORCINADOL] | > 20 | > 20
2 | CCOc1cc2ncc(C#N)c(Nc3ccc(F)c(Cl)c3)c2cc1NC(=O)/C=C/CN(C)C [PELITINIB] | > 20 | > 20
3 | CC(=O)N[C@@H](Cc1ccc(O)cc1)C(=O)O [ACETYL TYROSINE] | > 20 | > 20
4 | C=C1C(=O)O[C@@H]2[C@H]3C(C)=CC[C@@]34O[C@@]4(C)CC[C@@H]12 [ARGLABIN] | > 20 | > 20
5 | O=c1oc2cc(O)ccc2s1 [TIOXOLONE] | > 20 | > 20
6 | NS(=O)(=O)c1cc(Cl)c(Cl)c(S(N)(=O)=O)c1 [DICHLORPHENAMIDE] | > 20 | > 20
7 | CC(C)CCCC(C)NC(C)C (stereo not drawn) [IPROHEPTINE] | > 20 | > 20
8 | CN(C)CCc1c[nH]c2ccccc12 | > 20 | > 20
9 | O=C1[C@@H]2[C@H]3CC[C@H](C3)[C@@H]2C(=O)N1CCCCN1CCN(c2ncccn2)CC1 [TANDOSPIRONE] | > 20 | > 20
10 | CC12CCC(=O)C[C@@H]1CCC1C2CCC2(C)C1CCC2(C)O (stereo partly drawn) | > 20 | > 20
11 | Cn1nc(CO)nc1NCCCOc1cccc(CN2CCCCC2)c1 [LAVOLTIDINE] | > 20 | > 20
12 | NC(=O)c1ncn([C@@H]2O[C@H](CO)[C@@H](O)[C@H]2O)c1N [ACADESINE] | > 20 | > 20
13 | CCN1CCN(C(=O)NC(C(=O)NC2C(=O)N3C2SC(C)(C)C3C(=O)O)c2ccccc2)C(=O)C1=O (stereo not drawn) | > 20 | > 20
14 | CC(C)S(=O)(=O)n1c(N)nc2ccc(/C(=N\O)c3ccccc3)cc21 [ZINVIROXIME] | > 20 | > 20
15 | O=c1cc(-c2ccc(O)cc2)oc2c(C3O[C@H](CO)[C@@H](O)[C@H](O)[C@H]3O)c(O)cc(O)c12 (stereo partly drawn) | > 20 | > 20
16 | CC(CCC(=O)O)C1CCC2C3C(=O)C[C@@H]4CC(=O)CC[C@]4(C)C3CC(=O)[C@]12C (stereo partly drawn) | > 20 | > 20
17 | O=C(Nc1ccc(Cl)c(Cl)c1)C1=C(O)c2cc(Cl)ccc2S(=O)(=O)CC1 [ENOLICAM] | > 20 | > 20
18 | CCCCNC(=N)NC(=N)N [BUFORMIN] | > 20 | > 20
19 | O=C(NOCC1CC1)c1ccc(F)c(F)c1Nc1ccc(I)cc1Cl [CI-1040] | > 20 | > 20
20 | O=C(CCNNC(=O)c1ccncc1)NCc1ccccc1 [NIALAMIDE] | > 20 | > 20

Row | SMILES | IC50 [µM] | IC50 (read-out: pIC50 (converted)) [µM]
21 | COc1ccc(C(=O)Cc2c(CCN(C)C)cc3c(c2OC)OCO3)c(C(=O)O)c1OC [NARCEINE] | > 20 | > 20
22 | CC(=O)O[C@]1(C(C)=O)CC[C@H]2[C@@H]3C=C(C)C4=CC(=O)CC[C@@H]4[C@H]3CC[C@@]21C [NOMEGESTROL ACETATE] | > 20 | > 20
23 | COc1ccc(CN2CCNCC2)c(OC)c1OC [TRIMETAZIDINE] | > 20 | > 20
24 | CCOC(=O)c1cnc2c(cnn2CC)c1NN=C(C)C [ETAZOLATE] | > 20 | > 20
25 | CCN1CCc2nc(N)oc2CC1 [AZEPEXOLE] | > 20 | > 20
26 | N[C@@H](Cc1c[nH]c2ccccc12)C(=O)O [TRYPTOPHAN] | > 20 | > 20
27 | O=[N+]([O-])c1cncn1CCN1CCOCC1 [NIMORAZOLE] | > 20 | > 20
28 | CCOC(=O)c1ncn2c1CN(C)C(=O)c1cc(F)ccc1-2 [FLUMAZENIL] | > 20 | > 20
29 | CC(Cc1ccccc1)(NC(=O)CN)c1ccccc1 (stereo not drawn) [REMACEMIDE] | > 20 | > 20
30 | O=C(OC1Cc2c(O)cc(O)cc2O[C@@H]1c1ccc(O)c(O)c1)c1cc(O)c(O)c(O)c1 (stereo partly drawn) | > 20 | > 20
31 | COc1cc2c(cc1O)CC1c3c(cc(O)c(OC)c3-2)CCN1C (stereo not drawn) | > 20 | > 20
32 | CC(=O)[C@@]1(O)CC[C@H]2[C@@H]3CCC4=CC(=O)C=C[C@]4(C)[C@H]3[C@@H](O)C[C@@]21C [DEPRODONE] | > 20 | > 20
33 | Cc1ccc(/C(=C\CN2CCCC2)c2cccc(/C=C/C(=O)O)n2)cc1 [ACRIVASTINE] | > 20 | > 20
34 | CN1CCC(=C2c3ccccc3CCn3c(C=O)cnc32)CC1 [ALCAFTADINE] | > 20 | > 20
35 | COc1ccc(NC(=O)c2ccc(C(=N)N(C)C)cc2)c(C(=O)Nc2ccc(Cl)cn2)c1 [BETRIXABAN] | > 20 | > 20
36 | OCCN1C[C@H](O)[C@@H](O)[C@H](O)[C@H]1CO [MIGLITOL] | > 20 | > 20
37 | O=C(O)[C@@H]1CCCN1 [PROLINE] | > 20 | > 20
38 | Cc1cccc(-c2[nH]c(CNc3ccccc3F)nc2-c2ccc3ncnn3c2)n1 [VACTOSERTIB] | > 20 | > 20
39 | CC(C)NCC(O)COc1ccccc1-n1cccc1 (stereo not drawn) [ISAMOLTAN] | > 20 | > 20

Reference: ChEMBL document CHEMBL4651402, “Screening of ~5500 FDA-approved drugs and clinical candidates for anti-SARS-CoV-2 activity” (2021)
